Data published in ChEMBL document CHEMBL1821723 (J Med Chem, 2011).

assay: in vitro; details: human, liver microsomes
Description: Metabolic stability in human liver microsome assessed as compound remaining after 30 mins

Row | remaining at 0.5 h [%] | Structure (SMILES)
1 | 3.6 | CC(Oc1cc(-c2cnn(C(C)(C)C(=O)NCCN(C)C)c2)cnc1N)c1c(Cl)ccc(F)c1Cl (racemic)
2 | 44.3 | CC(Oc1cc(-c2cnn(C3CCCNC3)c2)cnc1N)c1c(Cl)ccc(F)c1Cl (racemic)
3 | 3.2 | CC(Oc1cc(-c2cnn(C(C)C)c2)cnc1N)c1c(Cl)ccc(F)c1Cl (racemic)
4 | 23.8 | CC(Oc1cc(-c2cnn(CC(=O)NCCCN(C)C)c2)cnc1N)c1c(Cl)ccc(F)c1Cl (racemic)
5 | 47.8 | CC(Oc1cc(-c2cnn(CC3CN(CC(N)=O)C3)c2)cnc1N)c1c(Cl)ccc(F)c1Cl (racemic)
6 | 71 | CC(Oc1cc(-c2cnn(CC3CNC3)c2)cnc1N)c1c(Cl)ccc(F)c1Cl (racemic)
7 | 44 | CC(Oc1cc(-c2cnn(C3CNC3)c2)cnc1N)c1c(Cl)ccc(F)c1Cl (racemic)
8 | 0.9 | CC(Oc1cc(-c2cnn(CC3(O)CCOCC3)c2)cnc1N)c1c(Cl)ccc(F)c1Cl (racemic)
9 | 5.2 | CC(Oc1cc(-c2cnn(C)c2)cnc1N)c1c(Cl)ccc(F)c1Cl (racemic)
